According to ChEMBL document CHEMBL1141384, “Discovery of a potent, selective, and orally active human epidermal growth factor receptor-2 sheddase inhibitor for the treatment of cancer” (J Med Chem, 2007):

Molecular target: T1, Disintegrin and metalloproteinase domain-containing protein 10 (Homo sapiens, UniProt O14672)
T1 sequence (O14672 whole entry): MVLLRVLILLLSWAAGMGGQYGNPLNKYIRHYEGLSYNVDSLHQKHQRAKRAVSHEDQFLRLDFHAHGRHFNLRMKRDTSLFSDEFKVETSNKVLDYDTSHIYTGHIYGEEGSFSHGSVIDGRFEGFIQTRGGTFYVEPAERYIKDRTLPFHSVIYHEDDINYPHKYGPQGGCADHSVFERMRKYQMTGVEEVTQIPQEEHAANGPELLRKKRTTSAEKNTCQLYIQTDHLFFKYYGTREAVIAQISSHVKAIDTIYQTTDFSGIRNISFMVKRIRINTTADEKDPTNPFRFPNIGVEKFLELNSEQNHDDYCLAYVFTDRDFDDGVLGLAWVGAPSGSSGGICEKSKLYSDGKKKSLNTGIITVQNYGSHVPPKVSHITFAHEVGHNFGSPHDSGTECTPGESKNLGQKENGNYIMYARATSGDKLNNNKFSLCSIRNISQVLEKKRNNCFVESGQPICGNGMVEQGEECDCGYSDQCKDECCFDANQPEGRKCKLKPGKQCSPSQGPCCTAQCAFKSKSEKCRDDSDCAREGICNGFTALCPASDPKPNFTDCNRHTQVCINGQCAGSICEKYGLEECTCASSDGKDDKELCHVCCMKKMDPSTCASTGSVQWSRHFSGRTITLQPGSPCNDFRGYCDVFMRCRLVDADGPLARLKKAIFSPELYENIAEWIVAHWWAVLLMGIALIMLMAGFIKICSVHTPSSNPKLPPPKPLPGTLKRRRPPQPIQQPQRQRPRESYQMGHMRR
Assay: Inhibition of ADAM10
Conditions: not given

| SMILES | IC50 |
| --- | --- |
| O=C(NO)[C@H]1CCCN[C@@H]1C(=O)N1CC[C@H](c2ccccc2)C1 | 480 nM |
| Cc1cc([N+](=O)[O-])ccc1N1CCN(C(=O)[C@H]2NCC3(CC3)C[C@@H]2C(=O)NO)CC1 | 110 nM |
| CN1CC2(CC2)C[C@H](C(=O)NO)[C@H]1C(=O)N1CC=C(c2ccccc2)CC1 | 77 nM |
| CN1CC2(CC2)C[C@H](C(=O)NO)[C@H]1C(=O)N1CCN(c2ccccc2)CC1 | 310 nM |

Molecular target: T2, Interstitial collagenase (Homo sapiens, UniProt P03956)
T2 sequence (P03956 whole entry): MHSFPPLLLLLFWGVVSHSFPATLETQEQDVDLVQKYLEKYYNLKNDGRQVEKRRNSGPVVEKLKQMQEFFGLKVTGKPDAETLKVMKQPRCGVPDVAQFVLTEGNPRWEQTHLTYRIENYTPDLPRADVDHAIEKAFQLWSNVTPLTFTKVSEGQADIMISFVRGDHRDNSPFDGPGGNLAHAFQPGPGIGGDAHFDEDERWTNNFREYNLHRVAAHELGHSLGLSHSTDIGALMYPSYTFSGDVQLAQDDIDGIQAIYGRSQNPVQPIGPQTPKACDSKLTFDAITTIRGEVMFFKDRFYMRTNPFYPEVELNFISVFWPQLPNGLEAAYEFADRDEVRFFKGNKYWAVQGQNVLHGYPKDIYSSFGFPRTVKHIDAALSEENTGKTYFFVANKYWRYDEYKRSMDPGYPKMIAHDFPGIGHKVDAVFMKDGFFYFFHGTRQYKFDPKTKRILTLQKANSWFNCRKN
Assay: Inhibition of MMP1
Conditions: not given

| SMILES | IC50 |
| --- | --- |
| O=C(NO)[C@H]1CC2(CC2)CN[C@@H]1C(=O)N1CC=C(c2ccccc2)CC1 | 3900 nM |
| Cc1cc([N+](=O)[O-])ccc1N1CCN(C(=O)[C@H]2NCC3(CC3)C[C@@H]2C(=O)NO)CC1 | > 5000 nM |
| CN1CC2(CC2)C[C@H](C(=O)NO)[C@H]1C(=O)N1CC=C(c2ccccc2)CC1 | > 5000 nM |

The remaining lines, values ahead:

| IC50 | SMILES |
| --- | --- |
| > 5000 nM | COC(=O)N1CC2(CC2)C[C@H](C(=O)NO)[C@H]1C(=O)N1CC=C(c2ccccc2)CC1 |
| > 5000 nM | O=C(NO)[C@H]1CC2(CC2)CN[C@@H]1C(=O)N1CCN(c2ccccc2)CC1 |
| > 5000 nM | O=C(NO)[C@H]1CC2(CC2)CN[C@@H]1C(=O)N1CC[C@H](c2ccccc2)C1 |
| > 5000 nM | CN1CC2(CC2)C[C@H](C(=O)NO)[C@H]1C(=O)N1CCN(c2ccccc2)CC1 |

Molecular target: 72 kDa type IV collagenase (Homo sapiens, UniProt P08253)
Sequence (P08253 whole entry): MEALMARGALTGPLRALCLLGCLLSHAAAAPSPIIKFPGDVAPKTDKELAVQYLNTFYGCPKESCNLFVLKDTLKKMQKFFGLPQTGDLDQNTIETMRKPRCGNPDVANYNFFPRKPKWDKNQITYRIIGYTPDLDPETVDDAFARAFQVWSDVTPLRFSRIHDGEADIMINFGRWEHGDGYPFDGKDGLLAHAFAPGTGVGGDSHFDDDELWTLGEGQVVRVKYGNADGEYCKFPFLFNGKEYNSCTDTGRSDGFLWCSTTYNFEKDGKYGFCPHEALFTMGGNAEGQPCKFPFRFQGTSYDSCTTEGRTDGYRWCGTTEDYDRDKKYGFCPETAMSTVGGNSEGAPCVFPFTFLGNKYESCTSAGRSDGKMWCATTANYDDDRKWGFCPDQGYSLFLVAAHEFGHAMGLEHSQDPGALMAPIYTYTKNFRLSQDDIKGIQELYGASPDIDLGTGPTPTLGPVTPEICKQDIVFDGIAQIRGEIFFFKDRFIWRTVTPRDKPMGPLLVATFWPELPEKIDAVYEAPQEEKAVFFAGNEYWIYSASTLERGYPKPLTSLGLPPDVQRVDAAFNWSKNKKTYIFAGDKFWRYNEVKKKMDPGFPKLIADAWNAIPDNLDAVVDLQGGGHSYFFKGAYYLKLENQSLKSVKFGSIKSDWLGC
Assay: Inhibition of MMP2
Conditions: not given

| SMILES | IC50 |
| --- | --- |
| O=C(NO)[C@H]1CC2(CC2)CN[C@@H]1C(=O)N1CC=C(c2ccccc2)CC1 | 5 nM |
| Cc1cc([N+](=O)[O-])ccc1N1CCN(C(=O)[C@H]2NCC3(CC3)C[C@@H]2C(=O)NO)CC1 | > 1000 nM |
| CN1CC2(CC2)C[C@H](C(=O)NO)[C@H]1C(=O)N1CC=C(c2ccccc2)CC1 | 64 nM |

More lines, now with the values ahead:

| IC50 | SMILES |
| --- | --- |
| 39 nM | COC(=O)N1CC2(CC2)C[C@H](C(=O)NO)[C@H]1C(=O)N1CC=C(c2ccccc2)CC1 |
| 200 nM | O=C(NO)[C@H]1CC2(CC2)CN[C@@H]1C(=O)N1CCN(c2ccccc2)CC1 |
| 960 nM | O=C(NO)[C@H]1CC2(CC2)CN[C@@H]1C(=O)N1CC[C@H](c2ccccc2)C1 |
| 150 nM | CN1CC2(CC2)C[C@H](C(=O)NO)[C@H]1C(=O)N1CCN(c2ccccc2)CC1 |

Molecular target: Stromelysin-1 (Homo sapiens, UniProt P08254)
Sequence (P08254 whole entry): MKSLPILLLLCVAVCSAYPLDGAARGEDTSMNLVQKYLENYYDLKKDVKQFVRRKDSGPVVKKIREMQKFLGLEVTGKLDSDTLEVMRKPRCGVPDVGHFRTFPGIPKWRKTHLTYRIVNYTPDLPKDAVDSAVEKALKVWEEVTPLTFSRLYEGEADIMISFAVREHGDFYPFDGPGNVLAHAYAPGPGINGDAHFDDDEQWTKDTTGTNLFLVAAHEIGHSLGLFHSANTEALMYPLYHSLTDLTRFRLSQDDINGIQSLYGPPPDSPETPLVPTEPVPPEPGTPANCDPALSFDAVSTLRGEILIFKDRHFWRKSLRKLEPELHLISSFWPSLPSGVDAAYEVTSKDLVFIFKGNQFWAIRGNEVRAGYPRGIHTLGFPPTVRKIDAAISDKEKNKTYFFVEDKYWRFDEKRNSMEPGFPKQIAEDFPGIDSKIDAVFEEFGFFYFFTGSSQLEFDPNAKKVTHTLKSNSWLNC
Assay: Inhibition of MMP3
Conditions: not given

| SMILES | IC50 |
| --- | --- |
| O=C(NO)[C@H]1CC2(CC2)CN[C@@H]1C(=O)N1CC=C(c2ccccc2)CC1 | 1200 nM |
| Cc1cc([N+](=O)[O-])ccc1N1CCN(C(=O)[C@H]2NCC3(CC3)C[C@@H]2C(=O)NO)CC1 | > 1000 nM |
| CN1CC2(CC2)C[C@H](C(=O)NO)[C@H]1C(=O)N1CC=C(c2ccccc2)CC1 | > 1000 nM |

The remaining lines, values ahead:

| IC50 | SMILES |
| --- | --- |
| 4000 nM | COC(=O)N1CC2(CC2)C[C@H](C(=O)NO)[C@H]1C(=O)N1CC=C(c2ccccc2)CC1 |
| > 5000 nM | O=C(NO)[C@H]1CC2(CC2)CN[C@@H]1C(=O)N1CCN(c2ccccc2)CC1 |
| > 3000 nM | O=C(NO)[C@H]1CC2(CC2)CN[C@@H]1C(=O)N1CC[C@H](c2ccccc2)C1 |
| > 5000 nM | CN1CC2(CC2)C[C@H](C(=O)NO)[C@H]1C(=O)N1CCN(c2ccccc2)CC1 |

Molecular target: Matrix metalloproteinase-9 (Homo sapiens, UniProt P14780)
Sequence (P14780 whole entry): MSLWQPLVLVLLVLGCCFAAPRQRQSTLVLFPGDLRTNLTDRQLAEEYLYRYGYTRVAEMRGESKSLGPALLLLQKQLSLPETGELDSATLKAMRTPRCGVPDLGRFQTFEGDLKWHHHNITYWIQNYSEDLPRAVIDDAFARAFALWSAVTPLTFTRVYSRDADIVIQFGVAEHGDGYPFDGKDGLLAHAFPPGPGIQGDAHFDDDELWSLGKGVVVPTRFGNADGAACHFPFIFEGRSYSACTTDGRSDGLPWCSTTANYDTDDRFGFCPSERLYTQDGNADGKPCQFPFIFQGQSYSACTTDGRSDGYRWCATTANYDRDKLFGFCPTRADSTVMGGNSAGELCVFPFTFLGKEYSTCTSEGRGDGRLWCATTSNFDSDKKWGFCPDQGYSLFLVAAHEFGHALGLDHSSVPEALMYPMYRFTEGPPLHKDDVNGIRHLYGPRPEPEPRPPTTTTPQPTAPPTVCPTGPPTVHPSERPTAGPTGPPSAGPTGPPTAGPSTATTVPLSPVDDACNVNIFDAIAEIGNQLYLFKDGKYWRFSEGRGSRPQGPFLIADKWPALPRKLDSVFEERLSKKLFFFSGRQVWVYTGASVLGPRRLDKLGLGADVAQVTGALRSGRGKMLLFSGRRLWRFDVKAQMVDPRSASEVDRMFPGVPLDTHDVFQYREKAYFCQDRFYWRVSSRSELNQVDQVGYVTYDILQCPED
Assay: Inhibition of MMP9
Conditions: not given

| SMILES | IC50 |
| --- | --- |
| O=C(NO)[C@H]1CC2(CC2)CN[C@@H]1C(=O)N1CC=C(c2ccccc2)CC1 | 113 nM |
| Cc1cc([N+](=O)[O-])ccc1N1CCN(C(=O)[C@H]2NCC3(CC3)C[C@@H]2C(=O)NO)CC1 | > 5000 nM |
| CN1CC2(CC2)C[C@H](C(=O)NO)[C@H]1C(=O)N1CC=C(c2ccccc2)CC1 | > 5000 nM |

Results, then the compound that gave them:

| IC50 | SMILES |
| --- | --- |
| 428 nM | COC(=O)N1CC2(CC2)C[C@H](C(=O)NO)[C@H]1C(=O)N1CC=C(c2ccccc2)CC1 |
| 650 nM | O=C(NO)[C@H]1CC2(CC2)CN[C@@H]1C(=O)N1CCN(c2ccccc2)CC1 |
| > 3000 nM | O=C(NO)[C@H]1CC2(CC2)CN[C@@H]1C(=O)N1CC[C@H](c2ccccc2)C1 |
| > 5000 nM | CN1CC2(CC2)C[C@H](C(=O)NO)[C@H]1C(=O)N1CCN(c2ccccc2)CC1 |

Test system: not listed separately
Assay: Clearance in murine
Type: ADME, organism-based
Conditions: mouse, in vivo

| SMILES | clearance |
| --- | --- |
| COC(=O)N1CC2(CC2)C[C@H](C(=O)NO)[C@H]1C(=O)N1CC=C(c2ccccc2)CC1 | 6.67 mL/min/kg |
| O=C(NO)[C@H]1CC2(CC2)CN[C@@H]1C(=O)N1CC=C(c2ccccc2)CC1 | 15 mL/min/kg |

Test system: not listed separately
Assay: Protein binding in murine plasma
Type: ADME, organism-based
Conditions: mouse, read-out: PPB (converted)

| SMILES | fraction unbound |
| --- | --- |
| COC(=O)N1CC2(CC2)C[C@H](C(=O)NO)[C@H]1C(=O)N1CC=C(c2ccccc2)CC1 | 0.7 |
| O=C(NO)[C@H]1CC2(CC2)CN[C@@H]1C(=O)N1CC=C(c2ccccc2)CC1 | 0.4 |

Test system: not listed separately
Assay: AUC (0-24h) in murine at 10 mg/kg, po
Type: ADME, organism-based
Design: time < 24 hr, dose 10 mg/kg, route oral
Conditions: mouse, in vivo

| SMILES | AUC(0-t) at 24 h |
| --- | --- |
| COC(=O)N1CC2(CC2)C[C@H](C(=O)NO)[C@H]1C(=O)N1CC=C(c2ccccc2)CC1 | 3.9 µM·h |
| O=C(NO)[C@H]1CC2(CC2)CN[C@@H]1C(=O)N1CC=C(c2ccccc2)CC1 | 0.35 µM·h |

Test system: not listed separately
Assay: Cmax in murine at 10 mg/kg, po
Type: ADME, organism-based
Design: dose 10 mg/kg, route oral
Conditions: mouse, in vivo

| SMILES | Cmax |
| --- | --- |
| COC(=O)N1CC2(CC2)C[C@H](C(=O)NO)[C@H]1C(=O)N1CC=C(c2ccccc2)CC1 | 7.7 µM |
| O=C(NO)[C@H]1CC2(CC2)CN[C@@H]1C(=O)N1CC=C(c2ccccc2)CC1 | 0.58 µM |
